The results in this text go back to patent US10975354B2, “Transdifferentiated cell populations and methods of use thereof” (ORGENESIS LTD., priority 2017, dated 2021).

For test [1], the system named is DsRed+ cells. Nature of the test: Reprogramming of DsRed+ cells with Li followed by pTFs in the presence of HDACi. It is filed as cell-based, human. To be noted: combination with 10 mM Li for 48 hours; 5 mM SB or 1 μM SAHA during 2+1 TD.
Experimental: Wnt-pathway activation was induced by supplementing cell medium with 10 mM Li for 48 hours. Subsequently, cells were transdifferentiated by pancreatic transcription factors (pTFs) in the presence of 5 mM sodium butyrate (SB) (FIG. 44A) or 1 μM suberanilohydroxamic acid (SAHA) (FIG. 44B). […] Bars show ratios of transcript levels of cells treated with HDACi and pTFs compared with cells treated with pTFs alone. Transcript levels were normalized to β-actin transcript levels. N=4 independent experiments with cells from two donors. * P-value<0.05.
Representative HDACi sodium-butyrate (SB) and suberanilohydroxamic acid (SAHA) were used to induce histone hyperacetylation, which is associated with permissive chromatin structure. Methods: Primary liver cells were incubated with 10 mM lithium (Li) for 48 hours to activate Wnt signaling. Subsequently, cells were contacted with pancreatic transcription factors according to the “2+1” transdifferentiation protocol described in Example 12 in the presence of 5 mM SB (Na-Butyrate) or 1 μM SAHA.
The subject of test [2] is eGFP+ cells. Nature of the test: Transdifferentiation of DKK-treated eGFP+ cells in the presence of sodium butyrate. It is filed as cell-based, human. The note with it: DKK 3 μg/ml for 48 hours, then pTFs with 5 mM sodium butyrate. On the procedure:
Wnt-pathway activation was induced by supplementing cell medium with 10 mM Li for 48 hours. Subsequently, cells were transdifferentiated by pancreatic transcription factors (pTFs) in the presence of 5 mM sodium butyrate (SB) (FIG. 44A) or 1 μM suberanilohydroxamic acid (SAHA) (FIG. 44B). In the GFP+ cell population, a similar effect was observed when Wnt-pathway was inhibited by supplementing serum-based medium with 3 μg/ml Dickkopf (DKK) for 48 hours followed by the transdifferentiation of cells by pTFs in the presence of 5 mM sodium butyrate (SB) (FIG. 44C). Bars show ratios of transcript levels of cells treated with HDACi and pTFs compared with cells treated with pTFs alone. Transcript levels were normalized to β-actin transcript levels. N=4 independent experiments with cells from two donors. * P-value<0.05.
Similarly, SB (HDAC inhibitor) treatment alleviated the effect of Wnt signaling inhibition of eGFP+ cells (FIG. 44C).

Test [3] concerns eGFP+ cells. Nature of the test: Pancreatic hormones gene expression (real-time RT-PCR) in eGFP+ cells supplemented with DKK3. The test is classed as cell-based, human. The note with it: Ad-CMV-Pdx-1, 5 days, DKK3 0.5 μg/ml. Here is the method: Pancreatic hormones gene expression was studied by Quantitative real-time RT-PCR compared to the control-treated cells.
Total RNA was isolated and cDNA was prepared and amplified, as described previously (Ber et al, (2003) J Biol Chem 278: 31950-31957; Sapir et al, (2005) ibid). Quantitative real-time RT-PCR was performed using ABI Step one plus sequence Detection system (Applied Biosystems, CA, USA), as described previously (Sapir et al, (2005) ibid; Meivar-Levy et al, (2007) ibid; Aviv et al, (2009) J Biol Chem 284: 33509-33520).
Background: Real-time PCR tracks product formation cycle by cycle.

Test [4] concerns adult human liver cells. Nature of the test: Glucose-regulated insulin secretion (radioimmunoassay) with Ad-CMV-Pdx-1 supplemented with Wnt3A or DKK3. The test is classed as cell-based. To be noted: Ad-CMV-Pdx-1 and soluble factors, 5 days; 2 mM then 17.5 mM glucose. On the procedure: Adult human liver cells were treated with Ad-CMV-Pdx-1 and soluble factors, as previously reported, supplemented with Wnt3A (50 ng/ml R&D or DKK3 (3 μg/ml R&D). After 5 days, insulin secretion was analyzed by static incubations at low followed by high glucose concentrations (2 mM and 17.5 mM glucose in KRB, respectively). Insulin secretion is measured using the human insulin radioimmunoassay kit (DPC; n≥8 from 3 different experiments) and compared to untreated cells (Cont). *p<0.01 compared to Ad-CMV-Pdx-1 alone, using Student's t-test analysis.
C-peptide and insulin secretion were measured by static incubations of primary cultures of adult liver cells 6 days after the initial exposure to the viral treatment, as described (Sapir et al, (2005) ibid; Meivar-Levy et al, (2007) ibid; Aviv et al, (2009) ibid). The glucose-regulated C-peptide secretion was measured at 2 mM and 17.5 mM glucose, which was determined by dose-dependent analyses to maximally induce insulin secretion from transdifferentiated liver cells, without having adverse effects on treated cells function (Sapir et al, (2005) ibid; Meivar-Levy et al, (2007) ibid; Aviv et al, (2009) ibid). C-peptide secretion was detected by radioimmunoassay using the human C-peptide radioimmunoassay kit (Linco Research, St. Charles, Mo.; <4% cross-reactivity to human proinsulin). […]

For test [5], the system named is human liver cultures. Nature of the test: Glucose stimulated insulin secretion with WNT3A or DKK added during TD. To be noted: added during TD (ectopic pTFs); measured five days later. The test is classed as cell-based. On the procedure:
FIGS. 41A-41G show active WNT signaling controls the activation of the pancreatic lineage in liver. (FIG. 41A) Efficient reprogramming of liver to pancreas relies on active WNT signaling. WNT signaling was activated by Wnt3A, or, alternatively, blocked by DKK, concomitantly to ectopic pTFs expression (TD) in human liver cultures. Glucose stimulated Insulin secretion was measured five days later. Results are average and standard error (SE) of 3-6 repeats from 3 different donors. * P-value<0.05; ** P-value<0.005; *** P-value<0.0005. […] Efficiency of reprogramming was measured by the activation of pancreatic genes expression and relative insulin secretion induced by high glucose concentrations (17.5 mM). […]
100,000 cells/well were seeded in a 6-wells plate in a low glucose DMEM media supplemented with 2 mM L-glutamine, 10% serum, antibiotics, 10 mM Nicotinamide, 20 ng/ml EGF, and 5 nM exendin4. […] After 48 hours the cells were harvested, counted, and 100,000 cells were infected with 50MOI of Ad-MafA and re-plated as above. 72 hours later the cells were analyzed for gene expression and insulin secretion, as detailed below. […]
Glucose regulated insulin secretion (FIGS. 38D and 38F, and 41A) was measured by radioimmunoassay kit (DPC, Los-Angeles, Calif.) as described previously (Berneman-Zeitouni D et al., ibid). […]

Turning to `O=C(CCCCCCC(=O)Nc1ccccc1)NO` [SAHA, suberanilohydroxamic acid], the “reprogramming of DsRed+ cells (expression of PDX-1, Isl-1, Pax-4, Nkx6.1)” value in test [1] is recorded as “increased reprogramming”.
Regarding `CCCC(=O)[O-].[Na+]` [SB, sodium-butyrate], the “reprogramming of DsRed+ cells (expression of PDX-1, Isl-1, Pax-4, Nkx6.1)” value in test [1] is listed as “increased reprogramming”. The “effect of Wnt signaling inhibition of eGFP+ cells” value in test [2] is “alleviated”.
With “DKK3: Dickkopf-related protein 3 (R&D), an inhibitor of the Wnt signaling pathway”, in test [3], the “transdifferentiation capacity of eGFP cells” value is “totally abolished”. In addition, the “Pdx-1-induced glucose-regulated insulin secretion” value in test [4] is given as “completely abolished”.

B1: Wnt3A: WNT3A protein (R&D), Wnt-pathway agonist (protein, UniProt P56704 19-352, looked up)
Protein Wnt-3a: SYPIWWSLAVGPQYSSLGSQPILCASIPGLVPKQLRFCRNYVEIMPSVAEGIKIGIQECQHQFRGRRWNCTTVHDSLAIFGPVLDKATRESAFVHAIASAGVAFAVTRSCAEGTAAICGCSSRHQGSPGKGWKWGGCSEDIEFGGMVSREFADARENRPDARSAMNRHNNEAGRQAIASHMHLKCKCHGLSGSCEVKTCWWSQPDFRAIGDFLKDKYDSASEMVVEKHRESRGWVETLRPRYTYFKVPTERDLVYYEASPNFCEPNPETGSFGTRDRTCNVSSHGIDGCDLLCCGRGHNARAERRREKCRCVFHWCCYVSCQECTRVYDVHTCK
For the molecule B1, in test [5], the glucose-regulated insulin secretion entry is reported as “marked increase”. Further, in test [4], the “Pdx-1-induced glucose-regulated insulin secretion” value is “increased”.
